Molecules are shown by their SMILES.

The assay relates to PC-3. In words: Colony formation assay, PC-3. The format is cell-based. The note with it: 1 or 2 µM, vs vehicle, p < 0.01. How it is done:
This assay was performed as previously described. The DU145 and PC-3 cells were incubated with RP-010 (1 or 2 µM) for 24 h. […], the medium was discarded and cells were trypsinized with 0.25% trypsin, 2.21-mM EDTA, and then harvested, counted, and reseeded in 6-well plates at a low density (500 cell/well). The cells were allowed to form colonies for 10–14 days at 37 °C, with the medium being changed every other day. Subsequently, methanol was used to fix the colonies formed in each plate, followed by staining the colonies with 0.1% crystal violet dye for 30 min. Finally, colonies were viewed and counted under an EVOS microscope (Themo Fisher Scientific, Wayne, MI, USA). The colony formation rate equation was applied for each compound: Colony formation rate = the number of colonies/numbers of seeded cells × 100%.

With `COc1ccc(-c2nc3sc4c(c3c(=O)[nH]2)CCCC4)cc1` [RP10], the Colony formation rate result was “significantly decreased”.

(Values after paper PMC6563099, “Novel Thienopyrimidine Derivative, RP-010, Induces β-Catenin Fragmentation and Is Efficacious against Prostate Cancer Cells” (Cancers, 2019).)
